Data on two compounds can be found in patent US20210254138A1, “SIALIC ACID TRANSPORTER PROTEINS AS BIOMARKERS AND DRUG TARGETS” (Quadram Institute Bioscience, priority 2018, published 2021).

Entries after “also recorded” stand apart in the source; their conditions may differ.

The target of assay [1] is RgSBP (RUMGNA_02698, solute binding protein). The experiment in a line: Isothermal titration calorimetry (ITC) of RgSBP binding. More on the design: species or system R. gnavus ATCC 29149. The note with it: 50 mM Tris-HCl pH 7.5; single-binding site model; triplicate. The protocol: Isothermal titration calorimetry (ITC) experiments were performed using the PEAQ-ITC system (Malvern, Malvern, UK) with a cell volume of 200 μl. Prior to titration, protein samples were exhaustively dialysed into 50 mM Tris-HCl pH 7.5. The ligand was dissolved in the dialysis buffer. The cell protein concentration was 100 μM and the syringe ligand concentration was 2 mM. Controls with titrant (sugar) injected into the buffer only were subtracted from the data. The analysis was performed using the Malvern software, using a single-binding site model. Experiments were carried out in triplicate.
On the technique in general: In ITC the heat of successive injections is recorded.

The subject of another assay is RgSBP. Kind of assay: Saturation transfer difference (STD) NMR with RgSBP. The assay is classed as binding, R. gnavus ATCC 29149. The note with it: RgSBP 50 μM with 2,7-anhydro-Neu5Ac 0.5 mM and Neu5Ac 1 mM. As to the method:
An amicon centrifuge filter unit with a 10 kDa MW cut-off was used to exchange the protein in 25 mM d19-2,2-bis (hydroxymethyl)-2,2′,2″-nitrilotriethanol pH* 7.4 (uncorrected for the deuterium isotope effect on the pH glass electrode) D2O buffer and 50 mM NaCl. 2,7-anhydro-Neu5Ac and Neu5Ac were dissolved in 25 mM d19-2,2-bis(hydroxymethyl)-2,2′,2″-nitrilotriethanol pH* 7.4, 50 mM NaCl. Characterization of ligand binding by Saturation Transfer Difference NMR Spectroscopy (Mayer, M. and Meyer, B. (1999) was performed on a Bruker Avance 800.23 MHz at 298 K. The on- and off-resonance spectra were acquired using a train of 50 ms Gaussian selective saturation pulses using a variable saturation time from 0.5 s to 4 s, for binding epitope mapping determination while only 0.5 s of saturation time for each selected frequency was used to perform the DEEP-STD NMR experiments (Monaco et al., 2017). The water signal was suppressed by using the excitation sculpting technique (Hwang et al., 1995), while the remaining protein resonances were filtered using a T2 filter of 40 ms. All the spectra were performed with a spectral width of 10 KHz and 32768 data points using 256 or 512 scans. This time due to the absence of a 3D structure it was impossible to derive the resonances for saturation of aliphatic and aromatic residues found in the binding site as required by the DEEP-STD NMR technique. […]

The test system of assay [2] is RgSBP (RUMGNA_02698, solute binding protein). The experiment in a line: Fluorescence spectroscopy of ligand binding to RgSBP. The arrangement: species or system R. gnavus ATCC 29149. As to conditions: for change in fluorescence emission at 350 nm upon sequential additions of ligand: sequential additions of 10 μM ligand. The protocol:
Ligand binding to RgSBP was investigated by measuring changes in the intrinsic protein fluorescence upon addition of 2,7-anhydro-Neu5Ac or Neu5Ac as potential ligands. (Andrew Bell with help from student in Gavin Thomas's Group,York). Due to the presence of […] in RgSBP, fluorescence changes were measured by exciting at 297 nm. Under these conditions the protein has a maximal emission at 331 nm. […] 2,7-Anhydro-Neu5Ac caused a 16% quench in the fluorescence of the protein at ligand saturation (FIG. 3A).
The binding of RgSBP to 2,7-anhydro-Neu5Ac or Neu5Ac was further investigated by measuring changes in fluorescence emission at 350 nm when RgSBP was excited at 297 nm upon sequential additions of 10 μM ligands.
All protein fluorescence experiments used a FluoroMax 3 fluorescence spectrometer with connecting water bath at 37° C. Because of the presence of 15 […] residues, the protein was excited at 297 nm with slit widths of 5 nm. […] Cumulative fluorescence changes from titration of the protein with ligand were plotted in GraphPad and fitted to a single rectangular hyperbola. The Kd values reported were averaged from three separate ligand titration experiments.
To determine the specificity of the predicted transporter, the gene encoding the predicted SBP was amplified by PCR from the R. gnavus ATCC 29149 genome, cloned into the pHISTEV expression vector, heterologously expressed in E. coli and the His6-tag recombinant protein purified by immobilised metal ion affinity chromatography (IMAC). Ligand binding to RgSBP was investigated by measuring changes in the intrinsic protein fluorescence upon addition of 2,7-anhydro-Neu5Ac or Neu5Ac as potential ligands. Due to the presence of 7 tryptophan residues in RgSBP, fluorescence changes were measured by exciting at 297 nm. Under these conditions the protein has a maximal emission at 331 nm. […] To confirm the novel specificity of 2,7-anhydro-Neu5Ac over Neu5Ac we followed sequential changes in fluorescence at 350 nm following additions of 10 μM of the two ligands. […] Conversely, when 2,7-anhydro-Neu5Ac is added first the quench is observed and additions of 10 μM Neu5Ac caused no further reduction or reverse in the intensity (FIG. 3d), indicating Neu5Ac is unable to displace 2,7-anhydro-Neu5Ac, further supporting the specificity of the interaction between RgSBP and 2,7-anhydro-Neu5Ac.

Assay [3] addresses RgNanA (RUMGNA_02692, sialic acid aldolase) (Mediterraneibacter gnavus, UniProt A7B555). Kind of assay: Sialic acid aldolase activity assay coupled to lactate dehydrogenase, RgNanA. As to conditions: 10 mM sialic acid, 37° C., pH 7.0, A340 nm.
Description: Aldolase cleavage was measured by monitoring the decrease in absorbance at 340 nm (A340 nm) as NADH is converted to NAD by lactate dehydrogenase in a coupled reaction where pyruvate is released from sialic acid by the aldolase. Reactions were performed in a 100 μl volume with final concentrations of 150 μM NADH (Sigma, St Louis, USA), 0.5 U LDH (Sigma, St Louis, USA), 10 mM sialic acid (Neu5Ac or 2,7-anhydro-Neu5Ac) and 1.5 μg purified RgNanA or EcNanA (E. coli aldolase CAS: 9027-60-5, Carbosynth, UK) in 50 mM Na-phosphate buffer (pH 7.0). The reactions were performed at 37° C. and monitored using FLUOstar OPTIMA (BMG LABTECH). For kinetics experiments, the sialic acid concentration was varied at 20, 10, 5, 4, 2, 1, 0.4, 0.2, 0.1 mM and the initial rate of reaction determined for each concentration in triplicate before analysis was performed by fitting the data to a Michaelis-Menten using Graph Pad Prism (V 5.03).
The substrate specificity of RgNanA was determined using a coupled activity assay where pyruvate released during the conversion of sialic acid to ManNAc is converted to lactate by a lactate dehydrogenase and the subsequent loss of absorbance at 340 nm measured as NADH is converted to NAD^+. A commercially available E. coli sialic acid aldolase (EcNanA) was included as a control and enzymes were tested for activity against 2,7-anhydro-Neu5Ac and Neu5Ac. […] The kinetic parameters of RgNanA were determined by calculating the initial rate of reaction with increasing Neu5Ac concentrations. A Michaelis-Menten curve was fitted to the data and kinetic parameters determined (FIG. 7b).

Sequence of RgNanA (RUMGNA_02692, sialic acid aldolase) (A7B555 whole entry): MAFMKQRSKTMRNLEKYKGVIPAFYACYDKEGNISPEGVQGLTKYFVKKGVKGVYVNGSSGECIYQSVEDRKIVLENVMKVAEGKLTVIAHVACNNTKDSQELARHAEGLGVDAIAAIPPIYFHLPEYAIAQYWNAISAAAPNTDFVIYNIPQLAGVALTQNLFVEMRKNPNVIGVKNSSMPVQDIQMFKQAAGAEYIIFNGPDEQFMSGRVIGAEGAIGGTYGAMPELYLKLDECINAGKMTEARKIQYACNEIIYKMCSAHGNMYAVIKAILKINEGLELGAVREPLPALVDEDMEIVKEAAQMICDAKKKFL

As usually defined, the Kd is a measure of binding affinity in units of concentration. A lower Kd goes with higher affinity. Take `CC(=O)N[C@H]1C2OC(C(=O)O)(C[C@@H]1O)O[C@@H]2[C@H](O)CO` (some centres unmarked) [2,7-anhydro-Neu5Ac]: the Kd came out at 2420 ± 270 nM in assay [1] and 1350 nM in assay [2] (titration of 0.5 μM RgSBP, triplicate, hyperbolic fit). For the same compound, the “transfer of magnetization as saturation from the protein to the ligand” value with RgSBP is listed as “clearly observed”. Moreover, the “quench in the fluorescence of the protein” value in assay [2] (RgSBP excited at 297 nm, 10 μM or 20 μM ligand, ligand saturation) is around 16%. Further, in assay [2] (excited at 297 nm), the “change in fluorescence emission at 350 nm upon sequential additions of ligand” value is “a quench is observed; also recorded: large decrease in intensity”. Further, the “aldolase activity against substrate” value in assay [3] is given as “neither enzyme showed activity”.
For the compound `CC(=O)N[C@H]1[C@H]([C@H](O)[C@H](O)CO)OC(O)(C(=O)O)C[C@@H]1O` (some centres unmarked) [Neu5Ac, N-acetylneuraminic acid], the “Kd (ITC)” value in assay [1] is given as “No binding was observed; also recorded: does not bind”. Also, the “transfer of magnetization as saturation from the protein to the ligand” value in the assay with RgSBP was “complete absence of saturation transfer”. Moreover, the “change in the fluorescence emission spectra of RgSBP” value in assay [2] (excited at 297 nm, ligand at 10 μM, 20 μM or 70 μM) is listed as “did not lead to any change in the spectra”. Further, the “change in fluorescence emission at 350 nm upon sequential additions of ligand” value in assay [2] (excited at 297 nm) is recorded as “no change in fluorescence is observed; also recorded: no change in intensity was observed”. Also, the “aldolase activity against substrate” value in assay [3] was “showed activity”.
